Test results taken from patent publication US11912701B2, “Protein kinase inhibitors for promoting liver regeneration or reducing or preventing hepatocyte death” (HEPAREGENIX GMBH, priority 2018, dated 2024).

Assays:
BRaf [1] = molecular target: T1, BRaf (Homo sapiens, UniProt P15056); assay: KINOMEscan competition binding assay, BRaf; details: ratio PoC (off-target)/PoC (MKK4)
T1 construct: purchased ProQinase GmbH, Freiburg, Germany (33PanQinase Assay Service)
In short: (§1)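 DNA-tagged kinases expressed in HEK-293 cells compete between immobilized ligand on blocked beads and test compound at 100 nM; kinase retained on beads quantified by qPCR of the tag.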

MKK4 [2] = molecular target: T2, MKK4 (Homo sapiens, UniProt P45985); assay: KINOMEscan competition binding assay, MKK4; details: residual percent of control binding (PoC) at 100 nM
T2 construct: S84/D399; host or cells: HEK-293
T2 sequence (P45985 84-399): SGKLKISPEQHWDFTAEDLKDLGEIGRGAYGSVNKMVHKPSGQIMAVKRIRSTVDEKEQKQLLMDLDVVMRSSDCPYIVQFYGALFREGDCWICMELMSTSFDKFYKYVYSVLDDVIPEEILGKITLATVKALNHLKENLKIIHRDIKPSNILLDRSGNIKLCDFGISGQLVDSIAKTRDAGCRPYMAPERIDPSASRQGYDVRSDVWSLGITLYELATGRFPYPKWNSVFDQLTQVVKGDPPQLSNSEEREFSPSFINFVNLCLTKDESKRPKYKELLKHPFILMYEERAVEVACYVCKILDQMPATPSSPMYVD
In short: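 KINOMEscan competition of compound versus immobilized ligand for DNA-tagged MKK4 expressed in HEK-293 cells. Bound kinase was quantified by qPCR after elution.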

MKK4 [3] = molecular target: T3, MKK4 (Homo sapiens, UniProt P45985); assay: 33PanQinase enzyme assay, MKK4; type: biochemical; details: assay 'IC50'; read-out: Potency MKK4 (IC50)
T3 construct: purchased ProQinase GmbH, Freiburg, Germany (33PanQinase Assay Service)
T3 sequence (P45985 1-399): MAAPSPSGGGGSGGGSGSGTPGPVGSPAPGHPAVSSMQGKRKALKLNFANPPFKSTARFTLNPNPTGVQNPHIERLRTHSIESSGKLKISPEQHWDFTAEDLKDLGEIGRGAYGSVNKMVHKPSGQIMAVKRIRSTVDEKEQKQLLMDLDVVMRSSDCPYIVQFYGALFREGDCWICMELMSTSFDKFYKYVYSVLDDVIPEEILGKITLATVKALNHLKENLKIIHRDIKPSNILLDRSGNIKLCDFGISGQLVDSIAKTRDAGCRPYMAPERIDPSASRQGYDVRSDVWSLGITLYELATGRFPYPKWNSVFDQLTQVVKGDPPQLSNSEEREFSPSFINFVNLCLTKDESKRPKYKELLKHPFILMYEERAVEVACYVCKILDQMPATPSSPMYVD
In short: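 Radiometric 33PanQinase assay: kinase, substrate, ATP and compound in standard buffer, 60 min at 30 °C; 33Pi incorporation read by scintillation counting.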

JNK1 [4] = molecular target: T4, JNK1 (Homo sapiens, UniProt P45983); assay: 33PanQinase enzyme assay, JNK1; type: biochemical; parameters: purchased ProQinase GmbH, Freiburg, Germany (33PanQinase Assay Service); details: ratio IC50(JNK1)/IC50(MKK4)
In short: (§2)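 Radiometric kinase reactions with ATP, test compound in DMSO and enzyme/substrate mix were incubated 60 min at 30 °C, stopped with 2% H3PO4 and washed; incorporated 33Pi was counted by scintillation. Single-concentration data are given as % residual activity; IC50 values come from least-squares curve fits.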

BRaf [5] = molecular target: T1, BRaf; assay: 33PanQinase enzyme assay, BRaf; type: biochemical; details: ratio IC50(BRaf)/IC50(MKK4)
In short: as §2

JNK1 [6] = molecular target: T4, JNK1; assay: KINOMEscan competition binding assay, JNK1; parameters: M1/Q384; host or cells: HEK-293; details: ratio PoC (off-target)/PoC (MKK4)
In short: as §1

MKK7 [7] = molecular target: T5, MKK7 (Homo sapiens, UniProt O14733); assay: 33PanQinase enzyme assay, MKK7; type: biochemical; parameters: purchased ProQinase GmbH, Freiburg, Germany (33PanQinase Assay Service); details: ratio IC50(MKK7)/IC50(MKK4)
T5 sequence (O14733 1-419): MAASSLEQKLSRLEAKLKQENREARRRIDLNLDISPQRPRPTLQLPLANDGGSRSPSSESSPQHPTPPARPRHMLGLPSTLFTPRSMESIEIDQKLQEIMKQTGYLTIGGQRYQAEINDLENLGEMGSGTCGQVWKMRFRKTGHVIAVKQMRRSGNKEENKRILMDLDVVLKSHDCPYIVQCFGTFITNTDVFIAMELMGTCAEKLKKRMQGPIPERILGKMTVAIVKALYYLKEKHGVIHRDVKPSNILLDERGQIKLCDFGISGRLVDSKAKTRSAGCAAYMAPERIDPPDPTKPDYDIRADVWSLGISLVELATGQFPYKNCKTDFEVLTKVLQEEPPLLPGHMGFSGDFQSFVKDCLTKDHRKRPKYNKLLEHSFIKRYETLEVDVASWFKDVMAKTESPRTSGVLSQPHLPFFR
In short: as §2

MKK7 [8] = molecular target: T5, MKK7; assay: KINOMEscan competition binding assay, MKK7; parameters: M1/R419; host or cells: HEK-293; details: ratio PoC (off-target)/PoC (MKK4)
In short: as §1

T1 sequence (P15056 whole entry, species assumed): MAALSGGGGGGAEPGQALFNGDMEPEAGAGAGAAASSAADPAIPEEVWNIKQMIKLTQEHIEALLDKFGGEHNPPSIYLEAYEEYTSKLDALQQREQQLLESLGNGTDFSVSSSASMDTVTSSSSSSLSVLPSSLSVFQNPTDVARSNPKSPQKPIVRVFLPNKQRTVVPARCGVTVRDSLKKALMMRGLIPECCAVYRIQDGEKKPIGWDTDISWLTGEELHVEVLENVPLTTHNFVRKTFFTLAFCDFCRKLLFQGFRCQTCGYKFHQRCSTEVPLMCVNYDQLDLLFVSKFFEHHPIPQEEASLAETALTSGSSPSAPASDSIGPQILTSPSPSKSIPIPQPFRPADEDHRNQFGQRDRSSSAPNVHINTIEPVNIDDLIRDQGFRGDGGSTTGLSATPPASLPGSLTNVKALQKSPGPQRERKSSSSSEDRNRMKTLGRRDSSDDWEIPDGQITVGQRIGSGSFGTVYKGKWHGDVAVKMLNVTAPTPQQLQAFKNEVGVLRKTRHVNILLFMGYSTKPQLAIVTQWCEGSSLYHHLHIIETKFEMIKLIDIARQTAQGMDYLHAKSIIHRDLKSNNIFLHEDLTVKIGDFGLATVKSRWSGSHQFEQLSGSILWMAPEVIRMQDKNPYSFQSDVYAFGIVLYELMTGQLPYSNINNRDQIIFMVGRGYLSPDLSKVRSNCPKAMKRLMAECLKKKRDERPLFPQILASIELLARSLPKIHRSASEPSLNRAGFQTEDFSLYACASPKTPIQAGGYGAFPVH

In the case of O=C(c1ccc(F)c(NS(=O)(=O)CCC(F)(F)F)c1F)c1c[nH]c2ncc(-c3ccc(C(F)(F)F)nc3)cc12 [Example 148, N-(2,6-difluoro-3-(5-(6-(trifluoromethyl)pyridin-3-yl)-1H-pyrrolo[2,3-b]pyridine-3-carbonyl)phenyl)-3,3,3-trifluoropropane-1-sulfonamide], the “selectivity based on % Ctrl @100 nM vs. Braf” value (BRaf [1]) is reported as “+++ (Ratio > 100)”, the “MKK4 [% Ctrl @ 100 nM” value (MKK4 [2]) is reported as “+++ (PoC < 1)” and the IC50 (MKK4 [3]) is reported as under 0.1 µM. For the same compound, the “Selectivity JNK1, IC50(off-target)/IC50(MKK4)” value (shortened to “Selectivity JNK1”) (JNK1 [4]) was “+++ (IC50(off-target)/IC50(MKK4) > 100)”, the “Selectivity Braf, IC50(off-target)/IC50(MKK4)” value (from here on “Selectivity Braf”) (BRaf [5]) was “++ (100 ≥ IC50(off-target)/IC50(MKK4) > 10)” and the “selectivity based on % Ctrl @100 nM vs. JNK1” value (JNK1 [6]) was “+++ (Ratio > 100)”. The “Selectivity IVIKK7, IC50(off-target)/IC50(MKK4)” value (“Selectivity IVIKK7” for short) (MKK7 [7]) was “+++ (IC50(off-target)/IC50(MKK4) > 100)” and the “selectivity based on % Ctrl @100 nM vs. MKK7” value (MKK7 [8]) was “+++ (Ratio > 100)”.

With CCCS(=O)(=O)Nc1c(F)ccc(C(=O)c2c[nH]c3ncc(-c4ccc(N5CCC5)nc4)cc23)c1F [Example 162, N-(3-(5-(6-(azetidin-1-yl)pyridin-3-yl)-1H-pyrrolo[2,3-b]pyridine-3-carbonyl)-2,6-difluorophenyl)propane-1-sulfonamide] the “selectivity based on % Ctrl @100 nM vs. Braf” value (BRaf [1]) was “+++ (Ratio > 100)”, the “MKK4 [% Ctrl @ 100 nM” value (MKK4 [2]) was “+++ (PoC < 1)” and the IC50 (MKK4 [3]) was 0.1 to 1 µM. For the same compound, the “Selectivity JNK1” value (JNK1 [4]) was “++ (100 ≥ IC50(off-target)/IC50(MKK4) > 10)”, the “Selectivity Braf” value (BRaf [5]) was “++ (100 ≥ IC50(off-target)/IC50(MKK4) > 10)” and the “selectivity based on % Ctrl @100 nM vs. JNK1” value (JNK1 [6]) was “+++ (Ratio > 100)”. The “Selectivity IVIKK7” value (MKK7 [7]) was “+++ (IC50(off-target)/IC50(MKK4) > 100)” and the “selectivity based on % Ctrl @100 nM vs. MKK7” value (MKK7 [8]) was “+++ (Ratio > 100)”.

CCCS(=O)(=O)Nc1c(F)ccc(C(=O)c2c[nH]c3ncc(-c4ccc(N(C)C)nc4)cc23)c1F [Example 161, N-(3-(5-(6-(dimethylamino)pyridin-3-yl)-1H-pyrrolo[2,3-b]pyridine-3-carbonyl)-2,6-difluorophenyl)propane-1-sulfonamide] was tested, and the “selectivity based on % Ctrl @100 nM vs. Braf” value (BRaf [1]) was “+++ (Ratio > 100)”, the “MKK4 [% Ctrl @ 100 nM” value (MKK4 [2]) was “+++ (PoC < 1)” and the IC50 (MKK4 [3]) was under 0.1 µM. The “Selectivity JNK1” value (JNK1 [4]) was “++ (100 ≥ IC50(off-target)/IC50(MKK4) > 10)”, the “Selectivity Braf” value (BRaf [5]) was “++ (100 ≥ IC50(off-target)/IC50(MKK4) > 10)” and the “selectivity based on % Ctrl @100 nM vs. JNK1” value (JNK1 [6]) was “+++ (Ratio > 100)”. The “Selectivity IVIKK7” value (MKK7 [7]) was “+++ (IC50(off-target)/IC50(MKK4) > 100)” and the “selectivity based on % Ctrl @100 nM vs. MKK7” value (MKK7 [8]) was “+++ (Ratio > 100)”.

With CCCS(=O)(=O)Nc1ccc(F)c(C(=O)c2c[nH]c3ncc(-c4ccc(OC(F)(F)F)cc4)cc23)c1F [Example 111, N-(2,4-difluoro-3-(5-(4-(trifluoromethoxy)phenyl)-1H-pyrrolo[2,3-b]pyridine-3-carbonyl)phenyl)propane-1-sulfonamide] the “selectivity based on % Ctrl @100 nM vs. Braf” value (BRaf [1]) was “◯ (3 ≥ Ratio)”, the “MKK4 [% Ctrl @ 100 nM” value (MKK4 [2]) was “◯ (30 ≤ PoC)” and the IC50 (MKK4 [3]) was 0.1 to 1 µM. The “Selectivity JNK1” value (JNK1 [4]) was “+ (10 ≥ IC50(off-target)/IC50(MKK4) > 3)”, the “Selectivity Braf” value (BRaf [5]) was “◯ (3 ≥ IC50(off-target)/IC50(MKK4))” and the “selectivity based on % Ctrl @100 nM vs. JNK1” value (JNK1 [6]) was “◯ (3 ≥ Ratio)”. The “Selectivity IVIKK7” value (MKK7 [7]) was “+++ (IC50(off-target)/IC50(MKK4) > 100)” and the “selectivity based on % Ctrl @100 nM vs. MKK7” value (MKK7 [8]) was “◯ (3 ≥ Ratio)”.
